Laboratory results published in PubChem BioAssay (NCI).
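These data come from cells grown in 96-well plates and exposed to compound for 48 hours at five concentrations. The concentration for full growth arrest is given as TGI.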

Key:
Assay in all cases: NCI-60 cell line screen, 48 h
NCI-H23 lung = tested on: NCI-H23 lung
RPMI-8226 leukemia = tested on: RPMI-8226 leukemia
SW-620 colon = tested on: SW-620 colon
COLO 205 colon = tested on: COLO 205 colon
NCI/ADR-RES ovarian = tested on: NCI/ADR-RES ovarian
U251 CNS = tested on: U251 CNS
KM12 colon = tested on: KM12 colon
RXF 393 renal = tested on: RXF 393 renal
SN12C renal = tested on: SN12C renal
UACC-257 melanoma = tested on: UACC-257 melanoma
CAKI-1 renal = tested on: CAKI-1 renal
K-562 leukemia = tested on: K-562 leukemia
MDA-MB-231 breast = tested on: MDA-MB-231 breast
HCT-116 colon = tested on: HCT-116 colon
SR leukemia = tested on: SR leukemia
NCI-H226 lung = tested on: NCI-H226 lung
SF-268 CNS = tested on: SF-268 CNS
HOP-92 NSCLC = tested on: HOP-92 NSCLC
HCT-15 colon = tested on: HCT-15 colon
SF-539 CNS = tested on: SF-539 CNS
MCF7 breast = tested on: MCF7 breast
ACHN renal = tested on: ACHN renal
MOLT-4 leukemia = tested on: MOLT-4 leukemia
SNB-75 CNS = tested on: SNB-75 CNS
SK-MEL-5 melanoma = tested on: SK-MEL-5 melanoma
IGROV1 ovarian = tested on: IGROV1 ovarian
HT29 colon = tested on: HT29 colon
OVCAR-5 ovarian = tested on: OVCAR-5 ovarian
UO-31 renal = tested on: UO-31 renal
PC-3 prostate = tested on: PC-3 prostate
HS 578T breast = tested on: HS 578T breast
DU-145 prostate = tested on: DU-145 prostate
M14 melanoma = tested on: M14 melanoma
SNB-19 CNS = tested on: SNB-19 CNS
OVCAR-8 ovarian = tested on: OVCAR-8 ovarian
NCI-H460 lung = tested on: NCI-H460 lung
MDA-N = tested on: MDA-N
SK-MEL-2 melanoma = tested on: SK-MEL-2 melanoma
UACC-62 melanoma = tested on: UACC-62 melanoma
NCI-H522 lung = tested on: NCI-H522 lung
SF-295 CNS = tested on: SF-295 CNS
T-47D breast = tested on: T-47D breast
OVCAR-4 ovarian = tested on: OVCAR-4 ovarian
MALME-3M melanoma = tested on: MALME-3M melanoma
A549 NSCLC = tested on: A549 NSCLC
TK-10 renal = tested on: TK-10 renal
BT-549 breast = tested on: BT-549 breast
MDA-MB-435 = tested on: MDA-MB-435
786-0 renal = tested on: 786-0 renal
EKVX NSCLC = tested on: EKVX NSCLC
SK-OV-3 ovarian = tested on: SK-OV-3 ovarian
HCC-2998 colon = tested on: HCC-2998 colon
A498 renal = tested on: A498 renal
OVCAR-3 ovarian = tested on: OVCAR-3 ovarian
CCRF-CEM leukemia = tested on: CCRF-CEM leukemia
LOX IMVI melanoma = tested on: LOX IMVI melanoma
HL-60(TB) leukemia = tested on: HL-60(TB) leukemia
SK-MEL-28 melanoma = tested on: SK-MEL-28 melanoma

For `CC(NC(=O)Cc1ccccc1)NC(=O)C(C)C(=O)Nc1ccccc1` (stereo unspecified), which TGI (NCI-H23 lung) is on record?
The TGI was greater than 100 µM.

What about the TGI (RPMI-8226 leukemia) of the same compound?
The TGI was greater than 100 µM.

What about the TGI (SW-620 colon) of the same compound?
The TGI was greater than 100 µM.

And the TGI (COLO 205 colon)?
Its TGI is greater than 100 µM.

What about the TGI (NCI/ADR-RES ovarian) of the same compound?
The TGI was greater than 100 µM.

And the TGI (U251 CNS)?
Its TGI is greater than 100 µM.

And the TGI (KM12 colon)?
The TGI was greater than 100 µM.

What about the TGI (RXF 393 renal) of the same compound?
Its TGI is greater than 100 µM.

What about the TGI (SN12C renal) of the same compound?
Its TGI is greater than 100 µM.

What about the TGI (UACC-257 melanoma) of the same compound?
The TGI was greater than 100 µM.

What about the TGI (CAKI-1 renal) of the same compound?
The TGI was greater than 100 µM.

And the TGI (K-562 leukemia)?
Its TGI is greater than 100 µM.

What about the TGI (MDA-MB-231 breast) of the same compound?
Its TGI is greater than 100 µM.

And the TGI (HCT-116 colon)?
The TGI was greater than 100 µM.

What about the TGI (SR leukemia) of the same compound?
Its TGI is greater than 100 µM.

And the TGI (NCI-H226 lung)?
The TGI was 74.3 µM.

What about the TGI (SF-268 CNS) of the same compound?
Its TGI is greater than 100 µM.

What about the TGI (HOP-92 NSCLC) of the same compound?
The TGI was greater than 100 µM.

What about the TGI (HCT-15 colon) of the same compound?
The TGI was greater than 100 µM.

And the TGI (SF-539 CNS)?
The TGI was greater than 100 µM.

What about the TGI (MCF7 breast) of the same compound?
Its TGI is greater than 100 µM.

What about the TGI (ACHN renal) of the same compound?
Its TGI is greater than 100 µM.

What about the TGI (MOLT-4 leukemia) of the same compound?
Its TGI is greater than 100 µM.

And the TGI (SNB-75 CNS)?
Its TGI is greater than 100 µM.

What about the TGI (SK-MEL-5 melanoma) of the same compound?
The TGI was greater than 100 µM.

And the TGI (IGROV1 ovarian)?
The TGI was greater than 100 µM.

What about the TGI (HT29 colon) of the same compound?
Its TGI is greater than 100 µM.

What about the TGI (OVCAR-5 ovarian) of the same compound?
The TGI was greater than 100 µM.

And the TGI (UO-31 renal)?
The TGI was greater than 100 µM.

And the TGI (PC-3 prostate)?
The TGI was greater than 100 µM.

And the TGI (HS 578T breast)?
The TGI was 88 µM.

And the TGI (DU-145 prostate)?
The TGI was greater than 100 µM.

And the TGI (M14 melanoma)?
The TGI was greater than 100 µM.

And the TGI (SNB-19 CNS)?
The TGI was 75.8 µM.

And the TGI (OVCAR-8 ovarian)?
Its TGI is greater than 100 µM.

And the TGI (NCI-H460 lung)?
The TGI was greater than 100 µM.

What about the TGI (MDA-N) of the same compound?
Its TGI is greater than 100 µM.

What about the TGI (SK-MEL-2 melanoma) of the same compound?
Its TGI is greater than 100 µM.

And the TGI (UACC-62 melanoma)?
The TGI was greater than 100 µM.

What about the TGI (NCI-H522 lung) of the same compound?
The TGI was greater than 100 µM.

What about the TGI (SF-295 CNS) of the same compound?
The TGI was greater than 100 µM.

And the TGI (T-47D breast)?
Its TGI is greater than 100 µM.

And the TGI (OVCAR-4 ovarian)?
The TGI was greater than 100 µM.

What about the TGI (MALME-3M melanoma) of the same compound?
Its TGI is greater than 100 µM.

What about the TGI (A549 NSCLC) of the same compound?
Its TGI is greater than 100 µM.

What about the TGI (TK-10 renal) of the same compound?
The TGI was greater than 100 µM.

And the TGI (BT-549 breast)?
The TGI was greater than 100 µM.

And the TGI (MDA-MB-435)?
The TGI was greater than 100 µM.

What about the TGI (786-0 renal) of the same compound?
Its TGI is greater than 100 µM.

And the TGI (EKVX NSCLC)?
Its TGI is greater than 100 µM.

And the TGI (SK-OV-3 ovarian)?
Its TGI is greater than 100 µM.

With `CCOS(C)(=O)=O` as the compound, how does the TGI (NCI-H23 lung) read?
The TGI was greater than 100 µM.

And the TGI (SW-620 colon)?
Its TGI is greater than 100 µM.

What about the TGI (HCC-2998 colon) of the same compound?
Its TGI is greater than 100 µM.

And the TGI (COLO 205 colon)?
The TGI was greater than 100 µM.

What about the TGI (NCI/ADR-RES ovarian) of the same compound?
Its TGI is greater than 100 µM.

And the TGI (U251 CNS)?
The TGI was greater than 100 µM.

What about the TGI (A498 renal) of the same compound?
The TGI was greater than 100 µM.

What about the TGI (KM12 colon) of the same compound?
Its TGI is greater than 100 µM.

And the TGI (RXF 393 renal)?
Its TGI is greater than 100 µM.

And the TGI (SN12C renal)?
Its TGI is greater than 100 µM.

And the TGI (UACC-257 melanoma)?
The TGI was greater than 100 µM.

And the TGI (CAKI-1 renal)?
The TGI was greater than 100 µM.

And the TGI (K-562 leukemia)?
The TGI was greater than 100 µM.

What about the TGI (MDA-MB-231 breast) of the same compound?
Its TGI is greater than 100 µM.

And the TGI (HCT-116 colon)?
The TGI was greater than 100 µM.

What about the TGI (NCI-H226 lung) of the same compound?
Its TGI is greater than 100 µM.

What about the TGI (OVCAR-3 ovarian) of the same compound?
The TGI was greater than 100 µM.

And the TGI (SF-268 CNS)?
Its TGI is greater than 100 µM.

And the TGI (HOP-92 NSCLC)?
The TGI was 30.7 µM.

What about the TGI (CCRF-CEM leukemia) of the same compound?
The TGI was greater than 100 µM.

And the TGI (HCT-15 colon)?
The TGI was greater than 100 µM.

What about the TGI (SF-539 CNS) of the same compound?
The TGI was greater than 100 µM.

What about the TGI (LOX IMVI melanoma) of the same compound?
Its TGI is greater than 100 µM.

And the TGI (MCF7 breast)?
The TGI was greater than 100 µM.

And the TGI (ACHN renal)?
The TGI was greater than 100 µM.

And the TGI (MOLT-4 leukemia)?
The TGI was greater than 100 µM.

And the TGI (SK-MEL-5 melanoma)?
The TGI was greater than 100 µM.

And the TGI (IGROV1 ovarian)?
The TGI was greater than 100 µM.

And the TGI (HT29 colon)?
The TGI was greater than 100 µM.

What about the TGI (OVCAR-5 ovarian) of the same compound?
The TGI was greater than 100 µM.

And the TGI (UO-31 renal)?
Its TGI is greater than 100 µM.

And the TGI (PC-3 prostate)?
The TGI was greater than 100 µM.

What about the TGI (HS 578T breast) of the same compound?
The TGI was greater than 100 µM.

And the TGI (DU-145 prostate)?
Its TGI is greater than 100 µM.

What about the TGI (M14 melanoma) of the same compound?
Its TGI is greater than 100 µM.

What about the TGI (SNB-19 CNS) of the same compound?
Its TGI is greater than 100 µM.

And the TGI (OVCAR-8 ovarian)?
The TGI was greater than 100 µM.

And the TGI (NCI-H460 lung)?
The TGI was greater than 100 µM.

What about the TGI (MDA-N) of the same compound?
The TGI was greater than 100 µM.

And the TGI (HL-60(TB) leukemia)?
The TGI was greater than 100 µM.

And the TGI (SK-MEL-2 melanoma)?
Its TGI is greater than 100 µM.

What about the TGI (UACC-62 melanoma) of the same compound?
Its TGI is greater than 100 µM.

What about the TGI (NCI-H522 lung) of the same compound?
Its TGI is greater than 100 µM.

What about the TGI (SF-295 CNS) of the same compound?
The TGI was greater than 100 µM.

What about the TGI (T-47D breast) of the same compound?
The TGI was greater than 100 µM.

And the TGI (OVCAR-4 ovarian)?
Its TGI is greater than 100 µM.

And the TGI (MALME-3M melanoma)?
The TGI was greater than 100 µM.

And the TGI (A549 NSCLC)?
The TGI was greater than 100 µM.

And the TGI (TK-10 renal)?
The TGI was greater than 100 µM.

What about the TGI (BT-549 breast) of the same compound?
The TGI was greater than 100 µM.

What about the TGI (SK-MEL-28 melanoma) of the same compound?
Its TGI is greater than 100 µM.

What about the TGI (MDA-MB-435) of the same compound?
The TGI was greater than 100 µM.

What about the TGI (786-0 renal) of the same compound?
The TGI was greater than 100 µM.

And the TGI (EKVX NSCLC)?
The TGI was greater than 100 µM.

What about the TGI (SK-OV-3 ovarian) of the same compound?
Its TGI is greater than 100 µM.
